Source: US8383637B2, “2-amino-quinazoline derivatives useful as inhibitors of β-secretase (BACE)” (Jansssen Pharmaceutica N.V., priority 2004, dated 2013)

Experiments:
β-secretase(BACE) [1] = biological target: T1, β-secretase(BACE) (Homo sapiens, UniProt P56817); assay: BACE Assay-2 (FS1 substrate, IC50 and Ki); assay type: biochemical; details: procedure of Example 159, FS1 substrate; read-out: Ki μM (159)
T1 construct: purchased Panvera
Description: The FS1-substrate stock solution was prepared in DMSO as a 10 mg/mL solution. The FS1-substrate working solution was prepared by diluting the 10 mg/mL stock solution with substrate assay buffer to a final concentration of 300 μg/mL. The β-secretase (BACE) working solution was prepared by diluting a 0.83 mg/mL BACE stock solution with enzyme assay buffer to a final concentration of 4 μg/mL.
Test compounds were dissolved in DMSO at 10 mM.
The procedure for this assay was as follows: 15 μL of BACE working solution was pipetted into each well of a 96-well plate. To each well was then pipetted 2 μL of test compound at the selected concentration. Test compound and BACE were then mixed with a pipettor and incubated for 20 min at room temperature. To each well was then added 10 μL of the FS1 substrate working solution.
The procedure for the positive control was as follows: 15 μL of BACE working solution was pipetted into each well to be used as a positive control. To each well was then pipetted 2 μL of vehicle. Vehicle and BACE were then mixed with a pipettor and incubated for 20 min at room temperature. To each well was then added 10 μL of the FS1 substrate working solution.
For test compounds, measured at multiple concentrations, the measured T0 and T60 values were used to calculate an IC50 value using Graphpad Software (or PIR). For test compounds, Ki inhibition was determined as follows: For each compound concentration and positive control, rate of cleavage of substrate (Vi, where i=compound concentration in μM) was determined as Δ Fluorescence/Δ time (min). Cleavage rates (Vi) were plotted as a function of inhibitor concentration in μM [I]. The Ki was then determined by fitting the following equation to the graph of [I] vs Vi Y=aVmax/(50+24*(1+X/Ki)),

β-secretase(BACE) [2] = biological target: T1, β-secretase(BACE); assay: BACE FS1% Inhibition Assay; assay type: biochemical; details: FS1 substrate; for inhibition at 0.3 µM: 0.3 μM test compound, read-out: % Inhibition (FS) 0.3 μM; for inhibition at 1 µM: 1 μM test compound, read-out: % Inhibition (FS) 1 μM; for inhibition at 3 µM: 3 μM test compound, read-out: % Inhibition (FS) 3 μM
Summary of the method: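 Human BACE (4 μg/mL working solution) preincubated 20 min at room temperature with compound, then FS1 substrate (300 μg/mL working solution) added and incubated 1 h at room temperature. Percent inhibition calculated at each compound concentration against blank and vehicle controls.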

T1 sequence (P56817 46-501): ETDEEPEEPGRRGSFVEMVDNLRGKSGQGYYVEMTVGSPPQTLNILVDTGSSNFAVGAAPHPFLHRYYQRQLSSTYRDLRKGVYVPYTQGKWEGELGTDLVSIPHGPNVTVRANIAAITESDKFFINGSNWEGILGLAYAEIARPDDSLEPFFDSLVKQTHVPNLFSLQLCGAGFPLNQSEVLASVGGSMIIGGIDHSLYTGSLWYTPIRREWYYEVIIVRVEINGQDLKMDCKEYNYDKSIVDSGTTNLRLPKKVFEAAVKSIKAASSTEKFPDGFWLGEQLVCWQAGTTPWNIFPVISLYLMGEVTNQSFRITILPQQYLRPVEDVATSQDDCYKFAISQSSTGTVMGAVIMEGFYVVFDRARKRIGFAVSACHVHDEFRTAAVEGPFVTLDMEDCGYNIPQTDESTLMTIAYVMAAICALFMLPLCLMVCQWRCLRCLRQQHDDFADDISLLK

Compound | Ki (β-secretase(BACE) [1]) | inhibition at 0.3 µM (β-secretase(BACE) [2]) | inhibition at 1 µM (β-secretase(BACE) [2]) | inhibition at 3 µM (β-secretase(BACE) [2])
Cc1cccc(Oc2ccc3c(c2)CN(Cc2cccc(C(=O)N(C)C4CCCCC4)c2)C(N)=N3)c1 [Compound 209] | 0.29 µM | < 30% | 58% | 103%
CC(C)CN(CC(C)C)C(=O)c1cccc(CN2Cc3cc(Oc4ccccc4)ccc3N=C2N)c1 [Compound 211] | 0.69 µM | < 30% | < 30% | 68%
COc1ccccc1C(=O)NCCN1Cc2cc(Oc3ccccc3)ccc2N=C1N [Compound 216] | 0.52 µM | < 30% | 45% | 91%
CN(C(=O)c1cccc(CN2Cc3cc(Oc4cccc(-c5ccccc5)c4)ccc3N=C2N)c1)C1CCCCC1 [Compound 231] | 3.8 µM | < 30% | 71% | 75%
Cc1ccccc1-c1ccc2c(c1)CN(Cc1cccc(C(=O)N(C)C3CCCCC3)c1)C(N)=N2 [Compound 261] | 0.42 µM | 51% | 87% | 110%
Cc1cccc(C)c1-c1ccc2c(c1)CN(Cc1cccc(C(=O)N(C)C3CCCCC3)c1)C(N)=N2 [Compound 262] | 0.66 µM | 39% | 63% | 95%
CN(C(=O)c1cccc(CN2Cc3cc(-c4ccccc4C#N)ccc3N=C2N)c1)C1CCCCC1 [Compound 263] | 0.77 µM | 20% | 60% | 92%
COc1cccc(OC)c1-c1ccc2c(c1)CN(Cc1cccc(C(=O)N(C)C3CCCCC3)c1)C(N)=N2 [Compound 264] | 0.78 µM | 26% | 63% | 92%
CN(C(=O)c1cccc(CN2Cc3cc(-c4csc5ccccc45)ccc3N=C2N)c1)C1CCCCC1 [Compound 265] | 1.1 µM | < 30% | 55% | 92%
CN(C(=O)c1cccc(CN2Cc3cc(-c4ccccc4C(F)(F)F)ccc3N=C2N)c1)C1CCCCC1 [Compound 268] | 0.65 µM | < 30% | < 30% | 71%
COc1cccc(Oc2ccc3c(c2)CN(Cc2cccc(C(=O)N(C)C4CCCCC4)c2)C(N)=N3)c1 [Compound 292] | 1 µM | < 30% | 49% | 83%
Cc1ccccc1Oc1ccc2c(c1)CN(Cc1cccc(C(=O)N(C)C3CCCCC3)c1)C(N)=N2 [Compound 293] | 1.1 µM | < 30% | 44% | 81%
NC1=Nc2ccc(Oc3ccccc3)cc2CN1C(CNC(=O)C(c1ccccc1)c1ccccc1)C1CCCCC1 (stereo not shown) [Compound 304] | 0.56 µM | < 30% | 46% | 100%
CN(C(=O)c1cccc(CN2Cc3cc(-c4ccccc4OC(F)(F)F)ccc3N=C2N)c1)C1CCCCC1 [Compound 324] | 0.52 µM | < 30% | 55% | 87%
CC(=O)Nc1ccccc1-c1ccc2c(c1)CN(Cc1cccc(C(=O)N(C)C3CCCCC3)c1)C(N)=N2 [Compound 328] | 0.33 µM | < 30% | 61% | 92%
CN(C(=O)c1cccc(CN2Cc3cc(-c4ccccc4[N+](=O)[O-])ccc3N=C2N)c1)C1CCCCC1 [Compound 333] | 0.49 µM | < 30% | < 30% | 78%
CN(C(=O)c1cccc(CN2Cc3cc(-c4ccccc4F)ccc3N=C2N)c1)C1CCCCC1 [Compound 334] | 0.068 µM | 74% | 103% | 118%
Cc1ccccc1Sc1ccc2c(c1)CN(Cc1cccc(C(=O)N(C)C3CCCCC3)c1)C(N)=N2 [Compound 404] | 0.78 µM | < 30% | 32% | 67%
CCC(c1cccc(C(=O)N(C2CCCCC2)C2CCCCC2)c1)N1Cc2cc(-c3ccccc3OC)ccc2N=C1N (stereo not shown) [Compound 418] | 0.035 µM | 54% | 89% | 119%
